The values below come from patent US20230372253A1, “NOVEL LIPID-BASED SMALL MOLECULE INTEGRIN RECEPTOR-LIGAND AGONIST ADJUVANTS CARRIER COMPOSITIONS, INTEGRIN AGONIST ADJUVANT PHARMACEUTICAL COMPOSITIONS THEREFROM, AND METHODS FOR MAKING AND USING SAME” (7 Hills Pharma LLC, priority 2022, published 2023).

A short description of one series: LogP. The format is physicochemical. An excerpt:
The term “Log P” means the ratio of the concentrations of a substance in two heterogenous phases in equilibrium with each other. Typically, the organic solvent in n-octanol, but n-hexane; toluene; chlorobenzene; dichloromethane; methyl tert-butyl ether; isopropyl acetate; benzyl alcohol; cyclohexanol; or n-butanol may be used as well.

The nature of the next series: Solubility of 7HP349. Type of series: physicochemical.
In another series the target is CYP3A4 (Homo sapiens, UniProt P08684). Nature of the series: Cytochrome P450 Metabolism. The format is in vitro ADME.
Chain of CYP3A4 (P08684 whole entry): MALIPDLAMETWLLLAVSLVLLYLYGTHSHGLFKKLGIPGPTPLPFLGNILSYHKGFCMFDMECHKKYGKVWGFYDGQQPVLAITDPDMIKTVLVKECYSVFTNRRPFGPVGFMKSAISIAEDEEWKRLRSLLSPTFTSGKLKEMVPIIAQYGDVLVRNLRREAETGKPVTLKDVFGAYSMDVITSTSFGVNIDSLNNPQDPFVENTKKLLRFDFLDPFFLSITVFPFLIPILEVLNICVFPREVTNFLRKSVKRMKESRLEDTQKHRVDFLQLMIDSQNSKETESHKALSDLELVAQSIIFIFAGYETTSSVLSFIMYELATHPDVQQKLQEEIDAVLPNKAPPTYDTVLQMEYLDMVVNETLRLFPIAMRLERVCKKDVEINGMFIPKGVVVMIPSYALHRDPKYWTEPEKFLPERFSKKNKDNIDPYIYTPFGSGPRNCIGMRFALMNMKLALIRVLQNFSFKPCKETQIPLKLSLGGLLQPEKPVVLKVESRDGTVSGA
The next series has as its target CYP2C19 (Homo sapiens, UniProt P33261). Nature of the series: Cytochrome P450 Metabolism. Type of series: in vitro ADME.
The nature of a further series: Human SAD PK. The conditions noted are these: plasma, oral; for AUC(0-t): human; for AUC(0-t) / Cmax / half-life: mean ± SD; for Cmax / half-life / Tmax: n = 6; for Tmax: median. The format is in vivo. The procedure: Preferred lipid-based formulation based on U28 provided adequate exposure in human. The optimal PK exposure to engage integrins and improve adjuvant activity is systemic plasma exposure of AUC0-t between about 50 ng/mL/hr and about 100 ng/mL/hr.

Read-outs that look alike come from different tables or passages of the source. Where only a bound is given, the exact number is not on record here.

For orientation: logP means the decadic logarithm of the partition coefficient of the neutral form, usually between octanol and water. Lower therefore signals a more hydrophilic compound. For orientation: Solubility means the dissolved amount per volume that the medium holds. By Cmax is commonly meant the peak of the concentration-time curve. In general, half-life refers to the time in which the quantity being followed falls by half. Read a low half-life as fast loss. For orientation: Tmax means the time at which the peak concentration occurs.

Chain of CYP2C19 (P33261 whole entry): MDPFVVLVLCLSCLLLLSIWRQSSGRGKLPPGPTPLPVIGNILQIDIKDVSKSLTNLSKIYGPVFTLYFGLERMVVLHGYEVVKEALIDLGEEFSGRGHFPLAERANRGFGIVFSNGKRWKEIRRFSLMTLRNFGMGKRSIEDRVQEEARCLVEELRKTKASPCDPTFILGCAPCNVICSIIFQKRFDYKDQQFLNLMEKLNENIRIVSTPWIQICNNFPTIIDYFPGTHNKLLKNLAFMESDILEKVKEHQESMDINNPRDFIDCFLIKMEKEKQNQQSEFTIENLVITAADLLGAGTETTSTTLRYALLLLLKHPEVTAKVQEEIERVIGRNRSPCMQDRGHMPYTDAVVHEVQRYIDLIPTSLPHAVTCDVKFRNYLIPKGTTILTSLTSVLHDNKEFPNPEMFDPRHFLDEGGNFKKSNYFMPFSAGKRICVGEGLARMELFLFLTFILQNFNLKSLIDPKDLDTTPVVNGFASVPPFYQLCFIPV

`O=C(OCCOCCOC(=O)N(Cc1cccs1)Cc1cccs1)N(Cc1cccs1)Cc1cccs1` [Form 7HP577, 3-oxo-1-(2-thienyl)-2-(2-thienylmethyl)-4,7-dioxa-2-azanonan-9-yl bis(2-thienylmethyl)carbamate] yielded a logP in the series “LogP” of 6.58.
Turning to `O=C(OCCOCCOCCOC(=O)N(Cc1cccs1)Cc1cccs1)N(Cc1cccs1)Cc1cccs1` [Form 7HP349, 3-oxo-1-(2-thienyl)-2-(2-thienylmethyl)-4,7,10-trioxa-2-azadodecan-12-yl bis(2-thienylmethyl)carbamate], the Solubility in the series “Solubility of 7HP349” (aqueous buffers and simulated gastrointestinal fluids, aqueous buffer, hydrochloric acid-potassium chloride buffer (pH 2), citrate buffer (pH 4), sodium phosphate buffer (pH 7.4), SGF, FaSSIF and FeSSIF, read-out: Solubility) was less than 0.01 µM; in “Solubility of 7HP349” (common organic solvents such as methanol, ethanol, ethyl acetate, acetone, DMSO, DMF, DCM, etc.) it was “Highly soluble in common organic solvents such”; in the series “Solubility of 7HP349” (in water), “Insoluble in water”; in the series “Solubility of 7HP349” (non-polar organic solvents such as hexane, heptane, etc.), “Practically insoluble in non-polar organic solvents”; in “Solubility of 7HP349” (oil or lipid, vegetable oils such as corn, soybean, canola oils typically containing >C16 fatty acids, read-out: Solubility) it was no more than 50 mg/mL. This compound also returned a logP in the series “LogP” of 6.22. Moreover, the “Cytochrome P450 Metabolism” value on CYP3A4 was “Substrate for CYP3A4 and CYP2C19”; at CYP2C19, “Substrate for CYP3A4 and CYP2C19”. Moreover, the AUC(0-t) in “Human SAD PK” (50 mg, cohort 1, 50 mg, n = 6, read-out: AUC0-10 h) turned out to be 12.5 ng·h/mL; in the series “Human SAD PK” (50 mg, cohort 1, 50 mg, n = 6, read-out: AUClast), 31.8 ± 21.5 ng·h/mL; in the series “Human SAD PK” (100 mg, cohort 2, 100 mg, n = 6, read-out: AUC0-10 h), 115 ± 57.5 ng·h/mL; in the series “Human SAD PK” (100 mg, cohort 2, 100 mg, n = 6, read-out: AUClast) it was 165 ng·h/mL; in “Human SAD PK” (200 mg, cohort 3, 200 mg, n = 6, read-out: AUC0-10 h), 571 ± 195 ng·h/mL; in the series “Human SAD PK” (200 mg, cohort 3, 200 mg, n = 6, read-out: AUClast), 755 ± 241 ng·h/mL. Besides, the AUC(0-t) in “Human SAD PK” (300 mg, cohort 4, 300 mg, n = 6, read-out: AUC0-10 h) worked out at 938 ± 282 ng·h/mL; in the series “Human SAD PK” (300 mg, cohort 4, 300 mg, n = 6, read-out: AUClast) it was 1350 ± 316 ng·h/mL. The Cmax in “Human SAD PK” (cohort 1, 50 mg) worked out at 10.2 ± 8.17 ng/mL; in the series “Human SAD PK” (cohort 2, 100 mg), 36.1 ± 16.4 ng/mL; in “Human SAD PK” (cohort 3, 200 mg), 166 ± 61.8 ng/mL; in “Human SAD PK” (cohort 4, 300 mg), 321 ng/mL. In addition, the half-life is 8.9 h in the series “Human SAD PK” (cohort 1, 50 mg); 20.6 ± 15 h in the series “Human SAD PK” (cohort 2, 100 mg); 34.6 ± 20.7 h in “Human SAD PK” (cohort 3, 200 mg); 29.7 ± 15.4 h in “Human SAD PK” (cohort 4, 300 mg). Besides, the Tmax in “Human SAD PK” (cohort 1, 50 mg) turned out to be 2.5 h; in “Human SAD PK” (cohort 2, 100 mg) it was 2 h; in “Human SAD PK” (cohort 3, 200 mg) it was 2 h; in the series “Human SAD PK” (cohort 4, 300 mg), 2 h.
